Assay results: patent US5952008A, “Processes for preparing compositions for inhalation” (AB Astra, priority 1993, dated 1999)

What was measured:
[1] = Inhalation of insulin/enhancer powder in rats, blood glucose monitored as measure of insulin uptake; type: in vivo, rat; details: for Effect (enhancement of insulin uptake, blood glucose level): rats, inhaled powder; for Enhancement of polypeptide (insulin) absorption in the lung, result in words: rat model
Procedure: Each of the compounds listed in Table I was tested for its ability to enhance uptake of a polypeptide (insulin) in a rat model.
Various forms of insulin were employed in the different trials: recombinant human, semisynthetic human or bovine. Each formulation was prepared as above, drying and processing the insulin/enhancer or insulin/enhancer/lactose solution to produce an inhalable powder. The powder was administered to rats by inhalation, and the blood glucose levels of the rats were subsequently monitored as a measure of insulin uptake. These levels were compared to the corresponding values obtained from rats which had inhaled insulin formulations without enhancer.

[2] = system: CaCo-2 epithelial cell monolayer; test: In vitro CaCo-2 epithelial cell monolayer transport assay; type: in vitro ADME; details: for Transport rate across the monolayer with enhancer, in words: up to 16 mM sodium caprate
Procedure: A standard in vitro assay utilizing an epithelial cell line, CaCo-2 (available through the American Type Culture Collection (ATCC), Rockville, Md., USA), has been developed to assess the ability of various enhancer compounds to promote transport of markers across an epithelial cell monolayer, as a model for the epithelial cell layer which functions in the lung to separate the alveolus from the pulmonary blood supply.
In this assay, the enhancer and polypeptide or other marker are dissolved in aqueous solution at various proportions and/or concentrations, and applied to the apical side of the cell monolayer. After 60 min incubation at 37° C. and 95% RH (relative humidity), the amount of the marker on the basolateral side of the cells is determined, e.g., by use of a radioactively labelled marker.

[3] = Enhancer:Insulin:lactose 2:4:94
[4] = Enhancer:Insulin:lactose 4:4:92
[5] = Enhancer:Insulin:lactose 25:75:0

Row | Compound | Enhancement of polypeptide (insulin) absorption in the lung, result in words [1] | Effect (enhancement of insulin uptake, blood glucose level) [1, 4] | further results
1 | CCCCCCCC(=O)OCC(COP(=O)([O-])OCC[N+](C)(C)C)OC(=O)CCCCCCC (stereo not shown) [Dioctanoylphosphatidylcholine] |  |  | Effect (enhancement of insulin uptake, blood glucose level) [1, 3]: (+); Effect (enhancement of insulin uptake, blood glucose level) ([1]; Enhancer:Insulin:lactose 4:4:94): -
2 | O=C(O)CN(CCN(CC(=O)O)CC(=O)O)CC(=O)O [EDTA, ethylenediaminetetraacetic acid] | ineffective |  | 
3 | CCCCCCCCOC1O[C@H](CO)[C@@H](O)[C@H](O)[C@H]1O (stereo partly shown) [Octylglucopyranoside] | some absorption enhancing properties | (+) | 
4 | CCCCCCCCCC(=O)[O-].[K+] [Potassium caprate] | effective |  | Effect (enhancement of insulin uptake, blood glucose level) ([1]; Enhancer:Insulin:lactose 27:73:0): +
5 | CCCCCCCC/C=C\CCCCCCCC(=O)[O-].[K+] [Potassium oleate] |  | + | 
6 | CCCCCCCCCC(=O)[O-].[Na+] [Sodium caprate] | perform well |  | Amount of marker (mannitol) appearing on the basolateral side, insulin added ([2]; 1:3 sodium caprate:insulin by weight, FIG. 2): dependent upon the concentration of enhancer used; Amount of marker (mannitol) appearing on the basolateral side ([2]; sodium caprate up to 16 mM, 60 min, 37° C., FIG. 1): dependent upon the concentration of enhancer used; Effect (enhancement of insulin uptake, blood glucose level) ([1]; Enhancer:Insulin:lactose 10:90:0): (+); Effect (enhancement of insulin uptake, blood glucose level) ([1]; Enhancer:Insulin:lactose 17.5:82.5:0): (+); Effect (enhancement of insulin uptake, blood glucose level) [1, 5]: +
7 | CCCCCCCC(=O)[O-].[Na+] [Sodium caprylate] |  |  | Effect (enhancement of insulin uptake, blood glucose level) [1, 5]: -
8 | C[C@H](CCC(=O)NCC(=O)O)[C@H]1CC[C@H]2[C@@H]3[C@H](O)C[C@@H]4C[C@H](O)CC[C@]4(C)[C@H]3C[C@H](O)[C@]12C [Sodium glycocholate] | effectively enhance polypeptide absorption in the lung | + | 
9 | CCCCCCCCCCCC(=O)[O-].[Na+] [Sodium laurate] | perform well |  | Effect (enhancement of insulin uptake, blood glucose level) [1, 5]: +
10 | CCCCCCCCCCCCCC(=O)[O-].[Na+] [Sodium myristate] | perform well |  | Effect (enhancement of insulin uptake, blood glucose level) ([1]; Enhancer:Insulin:lactose 30:70:0): +
11 | CC(=O)OC1CC2(C)C(CC(O)C3C4(C)CCC(O)C(C)C4CCC32C)C1=C(CCCC(C)C)C(=O)NCCS(=O)(=O)O (stereo not shown) [Sodium tarodihydrofusidate] | effectively enhance polypeptide absorption in the lung |  | Effect (enhancement of insulin uptake, blood glucose level) [1, 3]: +
12 | C[C@H](CCC(=O)NCCS(=O)(=O)O)[C@H]1CC[C@H]2[C@@H]3[C@H](O)C[C@@H]4C[C@H](O)CC[C@]4(C)[C@H]3C[C@H](O)[C@]12C [Sodium taurocholate] | effectively enhance polypeptide absorption in the lung | + | 
13 | C[C@H](CCC(=O)O)[C@H]1CC[C@H]2[C@@H]3[C@@H](O)C[C@@H]4C[C@H](O)CC[C@]4(C)[C@H]3CC[C@]12C [Sodium ursodeoxycholate] | effectively enhance polypeptide absorption in the lung | + | 
14 | NC(=O)CC[C@@H]1NC(=O)[C@H](Cc2ccccc2)NC(=O)[C@H](Cc2ccc(O)cc2)NC(=O)[C@@H](N)CSSC[C@@H](C(=O)N2CCC[C@H]2C(=O)N[C@@H](CCCN=C(N)N)C(=O)NCC(N)=O)NC(=O)[C@H](CC(N)=O)NC1=O [vasopressin] |  |  | Increase in amount absorbed across the monolayer compared to absence of enhancer ([2]; 16 mM sodium caprate): 10-15 times
15 | Dimethyl-β-cyclodextrin | absorption enhancing effect |  | Effect (enhancement of insulin uptake, blood glucose level) ([1]; Enhancer:Insulin:lactose 75:25:0): +
16 | Lysine caprate | effective |  | Effect (enhancement of insulin uptake, blood glucose level) ([1]; Enhancer:Insulin:lactose 35:65:0): +
17 | Lysophosphatidylcholine | effective enhancer | + | 
18 | albumin |  |  | Transport rate across the monolayer with enhancer, in words [2]: no increase in transport rate
19 | carbonic anhydrase |  |  | Transport rate across the monolayer with enhancer, in words [2]: no increase in transport rate
20 | cytochrome C |  |  | Transport rate across the monolayer with enhancer, in words [2]: no increase in transport rate
